Laboratory results: the kinase profiling compilation of Christmann-Franck et al. (2016)

Experiments:
Experiment in all cases: KINOMEscan competition binding
Details in all cases: compound 0.1 µM
[1] = system: ABL1 (human), P00519 [F317L]
ACVR1 (human) = ACVR1 (human) (UniProt Q04771)
ACVR1B (human) = ACVR1B (human) (UniProt P36896)
BRAF (human) = BRAF (human) (UniProt P15056)
BRSK1 (human) = BRSK1 (human) (UniProt Q8TDC3)
BUB1 (human) = BUB1 (human) (UniProt O43683)
CDK3 (human) = CDK3 (human) (UniProt Q00526)
CDK3 (human), sequence (Q00526 whole entry, looked up): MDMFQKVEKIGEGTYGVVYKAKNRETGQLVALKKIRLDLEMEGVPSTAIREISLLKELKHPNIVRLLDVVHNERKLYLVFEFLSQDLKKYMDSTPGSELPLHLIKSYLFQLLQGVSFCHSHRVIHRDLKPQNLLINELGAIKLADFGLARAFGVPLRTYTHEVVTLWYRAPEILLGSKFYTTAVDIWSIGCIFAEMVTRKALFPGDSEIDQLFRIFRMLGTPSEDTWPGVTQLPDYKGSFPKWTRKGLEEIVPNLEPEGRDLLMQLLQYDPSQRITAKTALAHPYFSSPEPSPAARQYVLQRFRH

CIT (human) = CIT (human) (UniProt O14578)
CRK2 (P.falciparum) = CRK2 (P.falciparum) (UniProt P61075)
CRK2 (P.falciparum), sequence (P61075 whole entry, looked up): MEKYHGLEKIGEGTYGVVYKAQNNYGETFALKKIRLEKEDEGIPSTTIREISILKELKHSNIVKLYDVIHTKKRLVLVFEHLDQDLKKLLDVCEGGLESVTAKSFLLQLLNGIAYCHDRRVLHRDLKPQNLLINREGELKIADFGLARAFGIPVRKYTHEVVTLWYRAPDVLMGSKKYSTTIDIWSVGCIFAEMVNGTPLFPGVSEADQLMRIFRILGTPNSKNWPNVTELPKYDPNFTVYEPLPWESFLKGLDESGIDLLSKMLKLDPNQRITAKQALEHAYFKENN

CSNK2A1 (human) = CSNK2A1 (human) (UniProt P68400)
[2] = system: EGFR (human), P00533 [A750P; 747-749 del]
[3] = system: EGFR (human), P00533 [T790M]
EPHA1 (human) = EPHA1 (human) (UniProt P21709)
FGFR2 (human) = FGFR2 (human) (UniProt P21802)
[4] = system: FLT3 (human), P36888 [R834Q]
IRAK1 (human) = IRAK1 (human) (UniProt P51617)
[5] = system: KIT (human), P10721 [A829P]
[6] = system: KIT (human), P10721 [D816H]
MAST1 (human) = MAST1 (human) (UniProt Q9Y2H9)
MATK (human) = MATK (human) (UniProt P42679)
MYLK (human) = MYLK (human) (UniProt Q15746)
PAK2 (human) = PAK2 (human) (UniProt Q13177)
[7] = system: PIK3CA (human), P42336 [C420R]
PIK3CA (human), P42336 [C420R], sequence (P42336 whole entry C420R, looked up): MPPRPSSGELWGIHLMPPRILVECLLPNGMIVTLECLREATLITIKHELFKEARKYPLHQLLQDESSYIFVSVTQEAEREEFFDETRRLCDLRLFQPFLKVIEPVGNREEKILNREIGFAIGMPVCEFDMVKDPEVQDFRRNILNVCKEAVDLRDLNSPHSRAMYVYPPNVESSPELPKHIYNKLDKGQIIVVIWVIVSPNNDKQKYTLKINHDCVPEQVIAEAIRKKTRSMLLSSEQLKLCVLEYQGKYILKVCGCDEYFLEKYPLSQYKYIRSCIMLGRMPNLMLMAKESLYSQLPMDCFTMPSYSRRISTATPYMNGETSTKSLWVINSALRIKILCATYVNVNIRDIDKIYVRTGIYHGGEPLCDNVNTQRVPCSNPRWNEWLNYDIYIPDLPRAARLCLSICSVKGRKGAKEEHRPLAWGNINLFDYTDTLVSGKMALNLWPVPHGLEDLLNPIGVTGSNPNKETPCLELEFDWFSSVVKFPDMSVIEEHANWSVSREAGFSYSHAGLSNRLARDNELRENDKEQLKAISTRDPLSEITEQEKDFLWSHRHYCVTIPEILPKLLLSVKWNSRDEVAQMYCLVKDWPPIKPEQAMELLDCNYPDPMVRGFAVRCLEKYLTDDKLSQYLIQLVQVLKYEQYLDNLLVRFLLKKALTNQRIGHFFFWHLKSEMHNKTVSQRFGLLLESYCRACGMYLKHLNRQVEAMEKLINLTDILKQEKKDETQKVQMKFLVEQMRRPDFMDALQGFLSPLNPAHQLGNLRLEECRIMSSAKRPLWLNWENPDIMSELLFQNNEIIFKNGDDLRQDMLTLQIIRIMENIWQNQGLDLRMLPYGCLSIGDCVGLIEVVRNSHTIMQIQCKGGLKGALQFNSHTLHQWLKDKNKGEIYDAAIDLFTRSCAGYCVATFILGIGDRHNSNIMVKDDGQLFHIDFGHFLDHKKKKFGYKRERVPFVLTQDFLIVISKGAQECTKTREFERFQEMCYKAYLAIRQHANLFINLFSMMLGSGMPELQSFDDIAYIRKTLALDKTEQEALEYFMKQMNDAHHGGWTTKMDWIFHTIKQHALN

[8] = system: PIK3CA (human), P42336 [E542K]
PIK3CA (human), P42336 [E542K], sequence (P42336 whole entry E542K, looked up): as the sequence (P42336 whole entry C420R, looked up) above, with R420C, E542K counted along it

[9] = system: PIK3CA (human), P42336 [E545A]
PIK3CA (human), P42336 [E545A], sequence (P42336 whole entry E545A, looked up): as the sequence (P42336 whole entry C420R, looked up) above, with R420C, E545A counted along it

[10] = system: PIK3CA (human), P42336 [M1043I]
PIK3CA (human), P42336 [M1043I], sequence (P42336 whole entry M1043I, looked up): as the sequence (P42336 whole entry C420R, looked up) above, with R420C, M1043I counted along it

PLK4 (human) = PLK4 (human) (UniProt O00444)
PLK4 (human), sequence (O00444 whole entry, looked up): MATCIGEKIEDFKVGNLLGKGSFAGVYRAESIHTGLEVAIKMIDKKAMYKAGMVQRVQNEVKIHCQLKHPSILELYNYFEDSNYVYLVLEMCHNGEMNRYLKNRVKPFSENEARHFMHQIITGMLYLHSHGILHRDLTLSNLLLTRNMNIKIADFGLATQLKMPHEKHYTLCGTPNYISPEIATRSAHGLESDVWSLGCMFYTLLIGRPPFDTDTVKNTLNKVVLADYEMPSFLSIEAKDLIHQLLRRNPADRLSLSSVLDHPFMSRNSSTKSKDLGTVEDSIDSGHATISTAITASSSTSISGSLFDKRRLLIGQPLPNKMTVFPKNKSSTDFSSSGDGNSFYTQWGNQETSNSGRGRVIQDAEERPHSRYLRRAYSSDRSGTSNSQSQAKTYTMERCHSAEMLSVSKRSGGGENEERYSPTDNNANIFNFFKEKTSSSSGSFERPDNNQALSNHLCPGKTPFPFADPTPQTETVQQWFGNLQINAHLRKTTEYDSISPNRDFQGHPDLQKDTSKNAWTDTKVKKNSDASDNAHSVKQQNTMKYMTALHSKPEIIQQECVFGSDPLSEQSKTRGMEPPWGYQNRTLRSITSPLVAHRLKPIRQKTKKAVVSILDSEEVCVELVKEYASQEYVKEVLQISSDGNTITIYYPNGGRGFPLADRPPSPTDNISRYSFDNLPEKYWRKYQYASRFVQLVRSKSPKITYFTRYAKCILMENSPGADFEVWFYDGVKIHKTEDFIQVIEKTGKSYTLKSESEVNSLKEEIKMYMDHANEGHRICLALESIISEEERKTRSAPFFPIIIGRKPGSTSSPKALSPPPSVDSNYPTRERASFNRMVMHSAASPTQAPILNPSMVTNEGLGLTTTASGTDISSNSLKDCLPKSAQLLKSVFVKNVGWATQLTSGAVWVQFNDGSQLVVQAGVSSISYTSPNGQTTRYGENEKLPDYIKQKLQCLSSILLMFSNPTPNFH

PRKD3 (human) = PRKD3 (human) (UniProt O94806)
PTK2B (human) = PTK2B (human) (UniProt Q14289)
PTK2B (human), sequence (Q14289 whole entry, looked up): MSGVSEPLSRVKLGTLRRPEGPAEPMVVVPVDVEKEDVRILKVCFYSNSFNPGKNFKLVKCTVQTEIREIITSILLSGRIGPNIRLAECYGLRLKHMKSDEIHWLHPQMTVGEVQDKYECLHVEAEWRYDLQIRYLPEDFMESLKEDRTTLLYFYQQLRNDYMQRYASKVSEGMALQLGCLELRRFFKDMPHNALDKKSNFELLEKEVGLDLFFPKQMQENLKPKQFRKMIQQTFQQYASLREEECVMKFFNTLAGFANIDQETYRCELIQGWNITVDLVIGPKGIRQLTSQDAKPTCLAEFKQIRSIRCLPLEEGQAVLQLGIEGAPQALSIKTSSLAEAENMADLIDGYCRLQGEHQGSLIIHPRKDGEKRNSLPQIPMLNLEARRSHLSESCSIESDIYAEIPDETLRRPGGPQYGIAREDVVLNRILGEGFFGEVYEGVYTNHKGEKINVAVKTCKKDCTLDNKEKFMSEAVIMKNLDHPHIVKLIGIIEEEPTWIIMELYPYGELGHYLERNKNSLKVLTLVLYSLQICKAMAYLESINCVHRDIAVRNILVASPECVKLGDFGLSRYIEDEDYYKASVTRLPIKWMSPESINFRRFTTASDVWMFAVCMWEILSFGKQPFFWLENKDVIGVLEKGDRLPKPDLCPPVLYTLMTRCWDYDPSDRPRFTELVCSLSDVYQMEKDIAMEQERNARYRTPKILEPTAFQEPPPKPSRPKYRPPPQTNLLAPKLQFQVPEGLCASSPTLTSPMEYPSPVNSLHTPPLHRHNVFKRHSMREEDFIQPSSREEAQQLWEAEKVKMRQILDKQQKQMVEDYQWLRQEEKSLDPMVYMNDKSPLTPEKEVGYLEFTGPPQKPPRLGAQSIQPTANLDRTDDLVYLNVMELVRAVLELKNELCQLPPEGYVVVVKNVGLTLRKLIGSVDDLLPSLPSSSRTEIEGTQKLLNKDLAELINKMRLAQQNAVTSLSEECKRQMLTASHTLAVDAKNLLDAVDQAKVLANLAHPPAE

ROCK2 (human) = ROCK2 (human) (UniProt O75116)
RPS6KA4 KD1 (human) = RPS6KA4 KD1 (human) (UniProt O75676)
RPS6KA4 KD1 (human), sequence (O75676 whole entry, looked up): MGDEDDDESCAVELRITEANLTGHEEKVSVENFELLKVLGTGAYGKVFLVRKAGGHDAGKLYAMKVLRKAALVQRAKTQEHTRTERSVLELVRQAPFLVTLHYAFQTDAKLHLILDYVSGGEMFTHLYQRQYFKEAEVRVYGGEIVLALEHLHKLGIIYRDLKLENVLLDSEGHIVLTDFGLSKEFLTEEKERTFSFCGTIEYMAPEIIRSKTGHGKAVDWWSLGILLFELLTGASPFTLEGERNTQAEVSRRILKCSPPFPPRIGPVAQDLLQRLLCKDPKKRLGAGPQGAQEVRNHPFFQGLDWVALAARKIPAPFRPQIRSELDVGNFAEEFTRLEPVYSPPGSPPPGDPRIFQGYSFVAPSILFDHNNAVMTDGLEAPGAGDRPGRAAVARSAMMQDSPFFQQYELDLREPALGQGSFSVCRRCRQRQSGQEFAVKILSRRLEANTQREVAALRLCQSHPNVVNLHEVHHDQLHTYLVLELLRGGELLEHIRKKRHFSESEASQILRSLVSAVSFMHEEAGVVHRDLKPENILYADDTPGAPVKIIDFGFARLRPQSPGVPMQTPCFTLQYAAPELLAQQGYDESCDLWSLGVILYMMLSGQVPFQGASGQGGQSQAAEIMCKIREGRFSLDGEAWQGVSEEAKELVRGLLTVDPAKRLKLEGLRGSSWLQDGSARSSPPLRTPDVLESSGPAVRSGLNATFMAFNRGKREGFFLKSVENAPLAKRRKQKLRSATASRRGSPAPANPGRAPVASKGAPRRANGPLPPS

SGK3 (human) = SGK3 (human) (UniProt Q96BR1)
SGK3 (human), sequence (Q96BR1 whole entry, looked up): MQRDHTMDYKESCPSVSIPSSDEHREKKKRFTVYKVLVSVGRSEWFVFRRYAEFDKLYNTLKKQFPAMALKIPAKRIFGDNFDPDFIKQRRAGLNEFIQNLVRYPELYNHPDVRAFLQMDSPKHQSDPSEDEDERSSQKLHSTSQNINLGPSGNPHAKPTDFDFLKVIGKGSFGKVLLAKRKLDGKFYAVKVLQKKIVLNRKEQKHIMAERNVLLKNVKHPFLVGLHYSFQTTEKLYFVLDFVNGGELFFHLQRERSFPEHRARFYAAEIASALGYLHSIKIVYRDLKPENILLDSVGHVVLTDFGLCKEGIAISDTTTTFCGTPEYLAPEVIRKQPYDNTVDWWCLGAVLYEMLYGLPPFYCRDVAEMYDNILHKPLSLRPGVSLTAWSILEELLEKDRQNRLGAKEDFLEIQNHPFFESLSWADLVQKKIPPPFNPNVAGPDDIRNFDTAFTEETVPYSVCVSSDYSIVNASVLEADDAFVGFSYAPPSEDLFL

SLK (human) = SLK (human) (UniProt Q9H2G2)
STK33 (human) = STK33 (human) (UniProt Q9BYT3)
STK38 (human) = STK38 (human) (UniProt Q15208)
STK38L (human) = STK38L (human) (UniProt Q9Y2H1)
TRPM6 (human) = TRPM6 (human) (UniProt Q9BX84)
TSSK1B (human) = TSSK1B (human) (UniProt Q9BXA7)
TTK (human) = TTK (human) (UniProt P33981)
YSK4 (human) = YSK4 (human) (UniProt Q56UN5)

CCc1ccc(C(=O)Nc2cc(CN3CCN(C)CC3)cc(C(F)(F)F)c2)cc1C#Cc1cnc2ccnn2c1
kinase still bound, per cent of control [1]: 86% | kinase still bound, per cent of control (ACVR1 (human)): 84% | kinase still bound, per cent of control (ACVR1B (human)): 100% | kinase still bound, per cent of control (BRAF (human)): 53% | kinase still bound, per cent of control (BRSK1 (human)): 100% | kinase still bound, per cent of control (BUB1 (human)): 100% | kinase still bound, per cent of control (CDK3 (human)): 100% | kinase still bound, per cent of control (CIT (human)): 92% | kinase still bound, per cent of control (CRK2 (P.falciparum)): 100% | kinase still bound, per cent of control (CSNK2A1 (human)): 100% | kinase still bound, per cent of control [2]: 90% | kinase still bound, per cent of control [3]: 100% | kinase still bound, per cent of control (EPHA1 (human)): 86% | kinase still bound, per cent of control (FGFR2 (human)): 100% | kinase still bound, per cent of control [4]: 100% | kinase still bound, per cent of control (IRAK1 (human)): 100% | kinase still bound, per cent of control [5]: 69% | kinase still bound, per cent of control [6]: 81% | kinase still bound, per cent of control (MAST1 (human)): 100% | kinase still bound, per cent of control (MATK (human)): 100% | kinase still bound, per cent of control (MYLK (human)): 100% | kinase still bound, per cent of control (PAK2 (human)): 76% | kinase still bound, per cent of control [7]: 100% | kinase still bound, per cent of control [8]: 100% | kinase still bound, per cent of control [9]: 100% | kinase still bound, per cent of control [10]: 100% | kinase still bound, per cent of control (PLK4 (human)): 100% | kinase still bound, per cent of control (PRKD3 (human)): 97% | kinase still bound, per cent of control (PTK2B (human)): 90% | kinase still bound, per cent of control (ROCK2 (human)): 100% | kinase still bound, per cent of control (RPS6KA4 KD1 (human)): 93% | kinase still bound, per cent of control (SGK3 (human)): 100% | kinase still bound, per cent of control (SLK (human)): 66% | kinase still bound, per cent of control (STK33 (human)): 100% | kinase still bound, per cent of control (STK38 (human)): 93% | kinase still bound, per cent of control (STK38L (human)): 100% | kinase still bound, per cent of control (TRPM6 (human)): 90% | kinase still bound, per cent of control (TSSK1B (human)): 95% | kinase still bound, per cent of control (TTK (human)): 77% | kinase still bound, per cent of control (YSK4 (human)): 100%
